Test results taken from PubChem BioAssay (NCI).
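The compound was tested at five concentrations on cells cultured in 96-well plates, with a 48-hour exposure period. The concentration for full growth arrest is given as TGI.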

Tests used:
Experiment in all cases: DTP human tumour cell line panel, 48 h
[1] = tested on: SF-539 CNS
[2] = tested on: BT-549 breast
[3] = tested on: LOX IMVI melanoma
[4] = tested on: CAKI-1 renal
[5] = tested on: MALME-3M melanoma
[6] = tested on: HT29 colon
[7] = tested on: ACHN renal
[8] = tested on: CCRF-CEM leukemia
[9] = tested on: NCI-H23 lung
[10] = tested on: SK-MEL-28 melanoma
[11] = tested on: HCT-116 colon
[12] = tested on: SN12C renal
[13] = tested on: SK-MEL-2 melanoma
[14] = tested on: UO-31 renal
[15] = tested on: NCI-H226 lung
[16] = tested on: TK-10 renal
[17] = tested on: HOP-92 NSCLC
[18] = tested on: K-562 leukemia
[19] = tested on: SK-OV-3 ovarian
[20] = tested on: HCC-2998 colon
[21] = tested on: A498 renal
[22] = tested on: HL-60(TB) leukemia
[23] = tested on: M14 melanoma
[24] = tested on: 786-0 renal
[25] = tested on: IGROV1 ovarian
[26] = tested on: SNB-75 CNS
[27] = tested on: NCI/ADR-RES ovarian
[28] = tested on: COLO 205 colon
[29] = tested on: RPMI-8226 leukemia
[30] = tested on: UACC-62 melanoma
[31] = tested on: OVCAR-4 ovarian
[32] = tested on: UACC-257 melanoma
[33] = tested on: MDA-N
[34] = tested on: OVCAR-3 ovarian
[35] = tested on: HCT-15 colon
[36] = tested on: MDA-MB-435
[37] = tested on: KM12 colon
[38] = tested on: SF-295 CNS
[39] = tested on: HOP-62 NSCLC
[40] = tested on: DU-145 prostate
[41] = tested on: T-47D breast
[42] = tested on: SW-620 colon
[43] = tested on: RXF 393 renal
[44] = tested on: SF-268 CNS
[45] = tested on: MDA-MB-231 breast
[46] = tested on: SK-MEL-5 melanoma
[47] = tested on: EKVX NSCLC
[48] = tested on: NCI-H460 lung
[49] = tested on: HS 578T breast
[50] = tested on: OVCAR-8 ovarian
[51] = tested on: OVCAR-5 ovarian
[52] = tested on: SNB-19 CNS
[53] = tested on: NCI-H522 lung

SMILES: C/C(=N\Nc1nc2cc(C(F)(F)F)ccc2s1)c1ccccn1
- TGI [1]: 14.3 µM
- TGI [2]: > 40.1 µM
- TGI [3]: 2.48 µM
- TGI [4]: 5.14 µM
- TGI [5]: 8.9 µM
- TGI [6]: 1.81 µM
- TGI [7]: 5.84 µM
- TGI [8]: > 100 µM
- TGI [9]: 6.74 µM
- TGI [10]: 5.74 µM
- TGI [11]: 2.98 µM
- TGI [12]: 1.51 µM
- TGI [13]: 4.69 µM
- TGI [14]: 4.89 µM
- TGI [15]: 3.31 µM
- TGI [16]: 17.3 µM
- TGI [17]: 8.15 µM
- TGI [18]: > 100 µM
- TGI [19]: 11.3 µM
- TGI [20]: 18.3 µM
- TGI [21]: 7.61 µM
- TGI [22]: 0.872 µM
- TGI [23]: 7.14 µM
- TGI [24]: 5.5 µM
- TGI [25]: 3.99 µM
- TGI [26]: 11.3 µM
- TGI [27]: 1.48 µM
- TGI [28]: 7.01 µM
- TGI [29]: > 85.2 µM
- TGI [30]: 3.38 µM
- TGI [31]: 32.6 µM
- TGI [32]: > 31.2 µM
- TGI [33]: 14.7 µM
- TGI [34]: 8.85 µM
- TGI [35]: > 38.9 µM
- TGI [36]: 7.62 µM
- TGI [37]: 9.03 µM
- TGI [38]: 5.19 µM
- TGI [39]: 13.7 µM
- TGI [40]: 3.98 µM
- TGI [41]: 15.4 µM
- TGI [42]: 7.65 µM
- TGI [43]: 12.5 µM
- TGI [44]: 3.19 µM
- TGI [45]: 0.791 µM
- TGI [46]: 12.1 µM
- TGI [47]: 5.55 µM
- TGI [48]: 22.3 µM
- TGI [49]: 14.6 µM
- TGI [50]: 1.93 µM
- TGI [51]: 23.4 µM
- TGI [52]: 13.3 µM
- TGI [53]: 4.96 µM
